According to ChEMBL document CHEMBL1140790, “Determination of absolute stereochemistry, total synthesis, and evaluation of peptides from the myxomycete Physarum melleum” (Bioorg Med Chem Lett, 2008):
Calls of active or inactive are those of the source. No cut-off for these calls is given here.

Assay: Inhibition of Wnt signal activity by luciferase superTOP-Flash gene assay

Activity | Structure (SMILES)
Active | COC(=O)C[C@H](O)[C@H](Cc1ccc(O)cc1)NC(=O)CNC(=O)[C@H](NC(=O)c1ccc(OC)cc1)[C@@H](C)O
inactive | COC(=O)C[C@H](O)[C@H](Cc1ccc(O)cc1)NC(=O)CNC(=O)[C@@H](NC(=O)c1ccc(OC)cc1)[C@@H](C)O
